Laboratory results reported in the NIST ThermoML archive (doi:10.1021/je025534p).
± gives the expanded uncertainty stated by the source.

Conditions: Liquid, Ebulliometric method (Recirculating still)

Compound | vapor or sublimation pressure (298 K) [kPa] | vapor or sublimation pressure (303 K) [kPa] | vapor or sublimation pressure (308 K) [kPa] | vapor or sublimation pressure (313 K) [kPa] | vapor or sublimation pressure (318 K) [kPa] | vapor or sublimation pressure (323 K) [kPa] | vapor or sublimation pressure (328 K) [kPa] | vapor or sublimation pressure (333 K) [kPa] | vapor or sublimation pressure (338 K) [kPa] | vapor or sublimation pressure (343 K) [kPa] | vapor or sublimation pressure (348 K) [kPa] | vapor or sublimation pressure (353 K) [kPa] | vapor or sublimation pressure (358 K) [kPa] | vapor or sublimation pressure (363 K) [kPa] | vapor or sublimation pressure (366 K) [kPa] | vapor or sublimation pressure (356 K) [kPa] | vapor or sublimation pressure (373 K) [kPa]
CC1COC(C)O1 (centres undefined) [2,4-dimethyl-1,3-dioxolane] | 8.89 ± 4 | 11.17 ± 4 | 13.9 ± 4 | 17.17 ± 4 | 21.04 ± 4 | 25.62 ± 4 | 30.97 ± 4 | 37.21 ± 4 | 44.43 ± 4 | 52.75 ± 4 | 62.29 ± 4 | 73.16 ± 4 | 85.51 ± 4 | 99.46 ± 4 | 99 ± 9.9 | – | –
CC1OCCO1 [2-methyl-1,3-dioxolane] | 11.29 ± 4 | 14.2 ± 4 | 17.72 ± 4 | 21.98 ± 4 | 27.07 ± 4 | 33.15 ± 4 | 40.35 ± 4 | 48.83 ± 4 | 58.78 ± 4 | 70.39 ± 4 | 83.87 ± 4 | 99.46 ± 4 | – | – | – | 99 ± 9.9 | –
O [water] | – | – | – | – | – | – | – | – | – | – | – | – | – | – | – | – | 99 ± 9.9
